Test results: US11207366B2, “Traditional Chinese medicine composition comprising dried tangerine peels and dark tea for treating diabetes and preparation method thereof” (priority 2017, dated 2021)

System: diabetes patients
Test: Clinical experiment examples: fasting blood glucose of diabetes patients
Assay type: in vivo, human
Excerpt: In another preferred embodiment of the present invention, the tea bricks after the above-mentioned about 2-year aging time are pulled apart and left in the air for about 30 days for oxidization. After the loosen tea leaves are oxidized for about 30 days, they are smashed into small particles or powders. And then another 5 parts (by weight) to 15 parts (by weight) of blended tangerine peels are taken and smashed into particles or powders. The above-mentioned tangerine peels, in particles or powders form, are blended into the above-mentioned black teas, in particles or powders form. Then the composition can be used as the traditional Chinese medical tea drinks for treating diabetes. General patients can drink the tea once or twice a day, each time 5-10 grams. Severe patients can drink twice a day, each time 10-20 grams.
Clinical Experiment Examples
Oct. 23, 2016: fasting blood glucose was 8.9 mml. The patient administrated metformin, three times a day, one tablet each time before meals.
Oct. 29, 2016: the value of fasting blood glucose was 6.8 mml, and the traditional Chinese medicine tea drinks of the present invention were administrated twice a day, each time 5 grams of the tea, with the continuation of administration of the metformin.
Subject: The patient is a person, who has a long history of diabetes. Before drinking the traditional Chinese medicine tea drinks of the present invention, the subject administrated hypoglycemic agents (metformin) for long before each meal, each time 2 tablets. Test results (measured on empty stomach at 7 o'clock in the morning)
From the above case, it can be seen that only administration of metformin to decrease blood glucose would not lead to a good controlling effect, and the average value of blood glucose was 12.3 mml with a large fluctuation that varies from the 8.5 mml to the highest 19.5 mml After drinking the traditional Chinese medicine tea drinks of the present invention (brewing 1 to 2 bags every day), the average value of blood glucose was 8.6 mml with a steady trend where the values were fluctuated within 7-10 mml without the occurrence of very high measured results.

SMILES: CN(C)C(=N)N=C(N)N [metformin]
- fasting blood glucose (Case 1, Oct. 23, 2016, metformin three times a day, one tablet before meals (first day reported)): 8.9 mml
- fasting blood glucose (Case 1, Oct. 24, 2016, metformin only): 7.5 mml
- fasting blood glucose (Case 1, Oct. 25, 2016, metformin only): 7.4 mml
- fasting blood glucose (Case 1, Oct. 26, 2016, metformin only, big dinner and wine the evening before): 8.3 mml
- fasting blood glucose (Case 1, Oct. 29, 2016, on metformin, day the tea drinks (twice a day, 5 grams) were started): 6.8 mml
- measured average value of blood glucose (Case 1, metformin, 9 days from October 20 to October 29): 7.5 mml
- blood glucose measured on empty stomach at 7 o'clock in the morning (Case 2, metformin only (2 tablets before each meal), Aug. 24, 2016): 9.4 mml
- blood glucose measured on empty stomach at 7 o'clock in the morning (Case 2, metformin only, Aug. 28, 2016): 9.9 mml
- blood glucose measured on empty stomach at 7 o'clock in the morning (Case 2, metformin only, Dec. 2, 2016): 11.8 mml
- blood glucose measured on empty stomach at 7 o'clock in the morning (Case 2, metformin only, Dec. 9, 2016): 12.6 mml
- blood glucose measured on empty stomach at 7 o'clock in the morning (Case 2, metformin only, Dec. 14, 2016): 11.9 mml
- blood glucose measured on empty stomach at 7 o'clock in the morning (Case 2, metformin only, Dec. 18, 2016): 12.3 mml
- blood glucose measured on empty stomach at 7 o'clock in the morning (Case 2, metformin only, Dec. 24, 2016): 12.5 mml
- blood glucose measured on empty stomach at 7 o'clock in the morning (Case 2, metformin only, Dec. 28, 2016): 14.7 mml
- blood glucose measured on empty stomach at 7 o'clock in the morning (Case 2, metformin only, Jan. 2, 2017): 13.3 mml
- blood glucose measured on empty stomach at 7 o'clock in the morning (Case 2, metformin only, Jan. 6, 2017): 11.8 mml
- blood glucose measured on empty stomach at 7 o'clock in the morning (Case 2, metformin only, Nov. 1, 2016): 14.5 mml
- blood glucose measured on empty stomach at 7 o'clock in the morning (Case 2, metformin only, Nov. 5, 2016): 13.4 mml
- blood glucose measured on empty stomach at 7 o'clock in the morning (Case 2, metformin only, Nov. 10, 2016): 11.1 mml
- blood glucose measured on empty stomach at 7 o'clock in the morning (Case 2, metformin only, Nov. 13, 2016): 13 mml
- blood glucose measured on empty stomach at 7 o'clock in the morning (Case 2, metformin only, Nov. 18, 2016): 14 mml
- blood glucose measured on empty stomach at 7 o'clock in the morning (Case 2, metformin only, Nov. 20, 2016): 8.5 mml
- blood glucose measured on empty stomach at 7 o'clock in the morning (Case 2, metformin only, Nov. 27, 2016): 9.4 mml
- blood glucose measured on empty stomach at 7 o'clock in the morning (Case 2, metformin only, Oct. 1, 2016): 11 mml
- blood glucose measured on empty stomach at 7 o'clock in the morning (Case 2, metformin only, Oct. 4, 2016): 12.7 mml
- blood glucose measured on empty stomach at 7 o'clock in the morning (Case 2, metformin only, Oct. 11, 2016): 15.9 mml
- blood glucose measured on empty stomach at 7 o'clock in the morning (Case 2, metformin only, Oct. 24, 2016): 19.5 mml
- blood glucose measured on empty stomach at 7 o'clock in the morning (Case 2, metformin only, Sep. 3, 2016): 12.5 mml
- blood glucose measured on empty stomach at 7 o'clock in the morning (Case 2, metformin only, Sep. 11, 2016): 8.7 mml
- blood glucose measured on empty stomach at 7 o'clock in the morning (Case 2, metformin only, Sep. 23, 2016): 11.6 mml
- average value of blood glucose (Case 2, only administration of metformin): 12.3 mml
